{"source": "patent US20110217715A1", "about": "“GENE EXPRESSION IN DUCHENNE MUSCULAR DYSTROPHY” (CHILDREN'S HOSPITAL MEDICAL CENTER, priority 2008, published 2011)", "tested_on": "mRNA expression in peripheral blood of individuals with DMD", "test": "Whole-blood gene expression microarray: DMD administered deflazacort vs DMD administered prednisone", "format": "in vivo, human", "experimental": "Fifteen ml of blood was collected from each individual into 6 PAXgene® Vacutainer® tubes (PreAnalytiX, Germany) by antecubital fossa venipuncture. PAXgene® tubes contain a proprietary reagent that immediately stabilizes RNA, thus reducing RNA degradation and minimizing gene expression changes following phlebotomy. The tubes were then inverted 20 times, then remained undisturbed for 2 h at room temperature (about 19° C. to about 22° C.), and then stored at -70° C. until processed. Total RNA was isolated using the Paxgene® blood RNA kit (PreAnalytiX, Germany) according to the manufacturers instructions. The RNA isolated is from all cells in whole blood. Typical yields of total RNA isolated from about 7.5 ml of human whole blood were between 10 μg RNA and 40 μg RNA. RNA quality and purity was analyzed by spectrophotometry using the Nanodrop ND-1000, and RNA integrity was analyzed using the Agilent 2100 Bioanalyzer. […] Sample labeling, hybridization to chips, and image scanning were performed using standard Affymetrix protocols. For each whole blood sample from control individuals and individuals with DMD, total RNA was labeled using the One-Cycle Target Labeling protocol and hybridized to the arrays. […] Double-stranded cDNA synthesis, biotin-labeled cRNA synthesis, and cRNA fragmentation were performed according to the Affymetrix GeneChip Eukaryotic Expression Analysis protocol. The labeled, fragmented cRNA (15 μg) was hybridized at 45° C. overnight. After hybridization, the array was washed and stained. The arrays were scanned with an argon-ion laser at λ=570 nm, with a resolution of 3 μm/pixel (Affymetrix, Inc.). After scanning the array, the raw probe level values for each probe were saved in Affymetrix.cel files. […] Statistical analyses, including t-test analyses, unsupervised hierarchical clustering, and principal component analyses were conducted using Genespring 7.2 software ([…]® 7, Silicon Genetics, Redwood City Calif.). […] Corrections for multiple comparisons used a Benjamini-Hochberg False Discovery Rate (FDR) of 0.05, disclosed in Tang et al., J Cereb Blood Flow Metab 26 (2006) 1089, which is expressly incorporated by reference herein in its entirety. […] Sample processing and array hybridization, probe-level data analysis, and statistical analysis were identical to Example 1."}
{"smiles": "CC(=O)OCC(=O)[C@@]12N=C(C)O[C@@H]1C[C@H]1[C@@H]3CCC4=CC(=O)C=C[C@]4(C)[C@H]3[C@@H](O)C[C@@]12C", "note": "[deflazacort]", "values": [{"measurement": "p-value (t-test, deflazacort vs prednisone)", "setting": "deflazacort vs. prednisone, NM_004862, Nucleic Acid No. 2094", "result": 0.0123}, {"measurement": "p-value (t-test, deflazacort vs. prednisone)", "setting": "deflazacort vs. prednisone, NM_005306, Nucleic Acid No. 2036", "result": 0.00696}, {"measurement": "p-value (t-test, deflazacort vs. prednisone)", "setting": "deflazacort vs. prednisone, NM_005345, Nucleic Acid No. 275", "result": 0.0354}, {"measurement": "p-value", "setting": "deflazacort vs. prednisone, NM_005461, Nucleic Acid No. 1310", "result": 0.0317}, {"measurement": "p-value", "setting": "deflazacort vs. prednisone, NM_005502, Nucleic Acid No. 1893", "result": 0.00709}, {"measurement": "p-value (t-test, deflazacort vs prednisone)", "setting": "deflazacort vs. prednisone, NM_005569, Nucleic Acid No. 2093", "result": 0.0261}, {"measurement": "p-value (t-test, deflazacort vs prednisone)", "setting": "deflazacort vs. prednisone, NM_005574, Nucleic Acid No. 2095", "result": 0.0476}, {"measurement": "p-value", "setting": "deflazacort vs. prednisone, NM_005720, Nucleic Acid No. 1912", "result": 0.0485}, {"measurement": "p-value", "setting": "deflazacort vs. prednisone, NM_005890, Nucleic Acid No. 2024", "result": 0.0113}, {"measurement": "p-value (t-test, deflazacort vs. prednisone)", "setting": "deflazacort vs. prednisone, NM_006018, Nucleic Acid No. 2035", "result": 0.000507}, {"measurement": "p-value (t-test, deflazacort vs. prednisone)", "setting": "deflazacort vs. prednisone, NM_006332, Nucleic Acid No. 2055", "result": 0.0414}, {"measurement": "p-value", "setting": "deflazacort vs. prednisone, NM_006854, Nucleic Acid No. 2078", "result": 0.0129}, {"measurement": "p-value (t-test, deflazacort vs prednisone)", "setting": "deflazacort vs. prednisone, NM_006863, Nucleic Acid No. 2092", "result": 0.00957}, {"measurement": "p-value (t-test, deflazacort vs. prednisone)", "setting": "deflazacort vs. prednisone, NM_014179, Nucleic Acid No. 2051", "result": 0.0407}, {"measurement": "p-value (t-test, deflazacort vs. prednisone)", "setting": "deflazacort vs. prednisone, NM_014339, Nucleic Acid No. 2058", "result": 0.0463}, {"measurement": "p-value (t-test, deflazacort vs prednisone)", "setting": "deflazacort vs. prednisone, NM_014656, Nucleic Acid No. 2079", "result": 0.00329}, {"measurement": "p-value", "setting": "deflazacort vs. prednisone, NM_018690, Nucleic Acid No. 1907", "result": 0.00658}, {"measurement": "p-value", "setting": "deflazacort vs. prednisone, NM_019043, Nucleic Acid No. 1040", "result": 0.0288}, {"measurement": "p-value (t-test, deflazacort vs. prednisone)", "setting": "deflazacort vs. prednisone, NM_020179, Nucleic Acid No. 2016", "result": 0.0196}, {"measurement": "p-value (t-test, deflazacort vs. prednisone)", "setting": "deflazacort vs. prednisone, NM_020386, Nucleic Acid No. 2046", "result": 0.0129}, {"measurement": "p-value", "setting": "deflazacort vs. prednisone, NM_152641, Nucleic Acid No. 1576", "result": 0.0457}, {"measurement": "p-value (t-test, deflazacort vs. prednisone)", "setting": "deflazacort vs. prednisone, R38084, Nucleic Acid No. 2026", "result": 0.0133}, {"measurement": "p-value", "setting": "deflazacort vs. prednisone, S72848, Nucleic Acid No. 1686", "result": 0.0226}, {"measurement": "p-value (t-test, deflazacort vs prednisone)", "setting": "deflazacort vs. prednisone, T85248, Nucleic Acid No. 1311", "result": 0.0383}, {"measurement": "p-value", "setting": "deflazacort vs. prednisone, U48734, Nucleic Acid No. 1898", "result": 0.0349}, {"measurement": "p-value (t-test, deflazacort vs. prednisone)", "setting": "deflazacort vs. prednisone, U65590, Nucleic Acid No. 2061", "result": 0.00419}, {"measurement": "p-value", "setting": "deflazacort vs. prednisone, U70064, Nucleic Acid No. 414", "result": 0.0255}, {"measurement": "p-value (t-test, deflazacort vs. prednisone)", "setting": "deflazacort vs. prednisone, U81501, Nucleic Acid No. 2021", "result": 0.0425}, {"measurement": "p-value (t-test, deflazacort vs prednisone)", "setting": "deflazacort vs. prednisone, U93240, Nucleic Acid No. 2086", "result": 0.0114}, {"measurement": "p-value", "setting": "deflazacort vs. prednisone, U97075, Nucleic Acid No. 1949", "result": 0.0264}, {"measurement": "p-value (t-test, deflazacort vs. prednisone)", "setting": "deflazacort vs. prednisone, W27419, Nucleic Acid No. 2052", "result": 0.0306}, {"measurement": "p-value (t-test, deflazacort vs. prednisone)", "setting": "deflazacort vs. prednisone, W93728, Nucleic Acid No. 1590", "result": 0.0103}, {"measurement": "p-value", "setting": "deflazacort vs. prednisone, W95007, Nucleic Acid No. 1896", "result": 0.0111}, {"measurement": "p-value (t-test, deflazacort vs. prednisone)", "setting": "deflazacort vs. prednisone, X51757, Nucleic Acid No. 2050", "result": 0.0352}, {"measurement": "p-value", "setting": "gene M-RIP, Genbank BF515158, Nucleic Acid No. 2128", "result": 0.0466}, {"measurement": "p-value", "setting": "gene MLKL, Genbank AA706818, Nucleic Acid No. 2125", "result": 0.031}, {"measurement": "p-value", "setting": "gene MLL3, Genbank AI057455, Nucleic Acid No. 2126", "result": 0.0474}, {"measurement": "p-value", "setting": "gene MLLT2, Genbank AA703523, Nucleic Acid No. 2127", "result": 0.0149}, {"measurement": "p-value", "setting": "gene MLSTD1, Genbank NM_018099, Nucleic Acid No. 1848", "result": 0.0331}, {"measurement": "p-value", "setting": "gene MS4A7, Genbank AF237916, Nucleic Acid No. 2129", "result": 0.0291}, {"measurement": "p-value", "setting": "gene MTF1, Genbank NM_005955, Nucleic Acid No. 2130", "result": "5.84E−05"}, {"measurement": "p-value", "setting": "gene MX2, Genbank NM_002463, Nucleic Acid No. 2131", "result": 0.0283}, {"measurement": "p-value", "setting": "gene MYADM, Genbank BE908995, Nucleic Acid No. 2132", "result": 0.0206}, {"measurement": "p-value", "setting": "gene MYLIP, Genbank AW292746, Nucleic Acid No. 2133", "result": 0.00321}, {"measurement": "p-value", "setting": "gene MYO1F, Genbank BF740152, Nucleic Acid No. 2134", "result": 0.0266}, {"measurement": "p-value", "setting": "gene N4BP1, Genbank AB014515, Nucleic Acid No. 2135", "result": 0.0291}, {"measurement": "p-value", "setting": "gene NCF2, Genbank BC001606, Nucleic Acid No. 2136", "result": 0.0348}, {"measurement": "p-value", "setting": "gene NCOA1, Genbank BF576458, Nucleic Acid No. 2137", "result": 0.00399}, {"measurement": "p-value", "setting": "gene NCOA6, Genbank AF128458, Nucleic Acid No. 926", "result": 0.0221}, {"measurement": "p-value", "setting": "gene NDE1, Genbank BF973292, Nucleic Acid No. 2138", "result": 0.024}, {"measurement": "p-value", "setting": "gene NDE1, Genbank NM_017668, Nucleic Acid No. 2139", "result": 0.0358}, {"measurement": "p-value", "setting": "gene NFIC, Genbank AW134798, Nucleic Acid No. 2140", "result": 0.0141}, {"measurement": "p-value", "setting": "gene NKTR, Genbank AI880383, Nucleic Acid No. 2141", "result": 0.0222}, {"measurement": "p-value", "setting": "gene NOTCH2, Genbank AA291203, Nucleic Acid No. 2142", "result": 0.00739}, {"measurement": "p-value", "setting": "gene NOTCH2, Genbank AF308601, Nucleic Acid No. 1046", "result": 0.0265}, {"measurement": "p-value", "setting": "gene NOTCH2NL, Genbank AW516297, Nucleic Acid No. 2143", "result": 0.0362}, {"measurement": "p-value", "setting": "gene NSF, Genbank AK025172, Nucleic Acid No. 2144", "result": 0.0411}, {"measurement": "p-value", "setting": "gene OLIG1, Genbank AL355743, Nucleic Acid No. 1399", "result": 0.00583}, {"measurement": "p-value", "setting": "gene OSTF1, Genbank NM_012383, Nucleic Acid No. 2145", "result": 0.0203}, {"measurement": "p-value", "setting": "gene PACSIN2, Genbank NM_007229, Nucleic Acid No. 2146", "result": 0.0409}, {"measurement": "p-value", "setting": "gene PAPD4, Genbank AW104325, Nucleic Acid No. 2147", "result": 0.00878}, {"measurement": "p-value", "setting": "gene PARP9, Genbank AI738416, Nucleic Acid No. 2148", "result": 0.0394}, {"measurement": "p-value", "setting": "gene PARVG, Genbank AL355092, Nucleic Acid No. 2149", "result": 0.0293}, {"measurement": "p-value", "setting": "gene PB1, Genbank H79538, Nucleic Acid No. 2150", "result": 0.0371}, {"measurement": "p-value", "setting": "gene PBX2, Genbank BE397715, Nucleic Acid No. 2151", "result": 0.0221}, {"measurement": "p-value", "setting": "gene PCBP2, Genbank AW025150, Nucleic Acid No. 2152", "result": 0.0394}, {"measurement": "p-value", "setting": "gene PDLIM5, Genbank NM_006457, Nucleic Acid No. 2153", "result": 0.0238}]}
